Results as given in paper PMC11325505, “Nitrogen-Containing Flavonoids—Preparation and Biological Activity” (ACS Omega, 2024).
Converted amounts (≈) assume the structure as drawn. Read-outs that look alike come from different tables or passages of the source.

Tests used:
[1] = system: tumor necrosis factor (TNF-α) production by RAW 264.7 stimulated by LPS; experiment: Anti-inflammatory activity: TNF-α production by LPS-stimulated macrophages; format: cell-based, Murine; conditions: Mus musculus, RAW264.7; LPS-stimulated RAW 264.7; average of four repetitions ± SEM; read-out: TNFα production IC50
Method: (§1) The anti-inflammatory activity of flavonoids was evaluated as their ability to decrease the production of signaling molecules that mediate inflammation, such as nitric oxide (NO), tumor necrosis factor (TNF-α), and interleukin 6 (IL-6), in LPS-stimulated macrophages.
(§2) The anti-inflammatory activity of the tested flavonoids was determined as the ability to reduce the production of nitric oxide (NO), tumor necrosis factor (TNF-α), and interleukin 6 (IL-6) by RAW 264.7 stimulated by LPS, as previously described.[39],[40] Briefly, 1 × 10^6 cells/mL was seeded into the 96-well plate (100 μL/well). After 48 h, LPS (100 ng/mL) and the samples (3–100 μM) were added to the MEM medium. After 24 h, the medium was mixed with Griess reagent (0.04 g/mL) at a 1:1 ratio. The absorbance was measured after 15 min at 540 nm. Cell viability was determined using the resazurin assay.
(§3) To determine TNF-α levels, cells were precultivated with the tested compounds for 24 h. After 2 h of incubation with LPS, the medium was diluted 1:10 with ELISA diluent. To determine the level of IL-6, cells were cultivated for 6 h with LPS and the tested compounds. Cytokine production was determined using an uncoated ELISA performed according to the manufacturer’s instructions.

[2] = system: nitric oxide (NO) production by RAW 264.7 stimulated by LPS; experiment: Anti-inflammatory activity: NO production by LPS-stimulated macrophages; format: cell-based, Murine; conditions: Mus musculus, RAW264.7; LPS-stimulated RAW 264.7; average of four repetitions ± SEM
Method: as §1, §2

[3] = system: interleukin 6 (IL-6) production by RAW 264.7 stimulated by LPS; experiment: Anti-inflammatory activity: IL-6 production by LPS-stimulated macrophages; format: cell-based, Murine; conditions: for IC50: Mus musculus, RAW264.7, LPS-stimulated RAW 264.7, average of four repetitions ± SEM; for ability to inhibit IL-6 production compared to luteolin, in words: LPS-stimulated macrophages
Method: as §1, §2, §3

MRSA 1584 = experiment: Mode of antimicrobial action with gentamicin, aac(6')/aph(2')-positive strain; format: cell-based, Staphylococcus aureus; conditions: for effect (mode of action with gentamicin) / FIC (Fractional Inhibitory Concentration Index) / MIC: MRSA 1584; for MIC, Gentamicin [1 mg/L] yes: MRSA 1584 (aac(6')/aph(2')), with gentamicin 1 mg/L; for FIC (Fractional Inhibitory Concentration Index): with gentamicin; for MIC: Staphylococcus aureus, 24 h, read-out: MIC, Gentamicin [1 mg/L] no, without gentamicin
Text: Among the mechanisms of resistance to gentamicin previously described in S. aureus, the presence of enzymes that alter the structure of aminoglycosides is crucial. These enzymes can transfer nucleotides, phosphates, or acetyls to various −OH or −NH2 groups of gentamicin, preventing its subsequent interaction with the cellular target, i.e., the 30S ribosomal subunit. The bifunctional aminoglycoside-modifying enzyme with acetylation and phosphotransferase activities encoded by the gene aac(6’)/aph(2’), 4′,4″ adenyltransferase encoded by the aadD gene, and aminoglycoside O-phosphotransferase encoded by the gene aph(3′) are the most important.[37] […] For this reason, further testing continued using strains MRSA 3596 and MRSA 1584, which inactivate gentamicin only by a single mechanism (aadD and aac(6’)-aph(2’’), respectively).
Sensitization of multidrug-resistant clinical bacterial strains was performed according to ref[15]. Antibiotic cutoff concentration was chosen according to the European Committee on Antimicrobial Susceptibility Testing (EUCAST, Clinical breakpoints–bacteria, ver. 11.0). The 200 μM concentration of the derivatives was chosen as the highest test concentration. The absorbance detected at 600 nm was then used to estimate the number of viable cells after 24 h of incubation at 37 °C and 120 rpm.
Experiments were performed with the respective number of replicates indicated in each figure/table. MIC was determined as IC70. Both IC70 and IC50 values were calculated using the following nonlinear regression in the software GraphPad Prism: […]

[4] = system: immortalized human keratinocytes (HaCaT); experiment: Cytotoxicity (resazurin assay), keratinocytes; format: cell-based; conditions: Homo sapiens, HaCaT, 72 h, read-out: HaCaT IC50 (concentration that halved the viability)
Method: The cytotoxicity of the prepared derivatives was evaluated by their ability to decrease the viability of immortalized human keratinocytes (HaCaT) and human dermal fibroblasts (HDF).
100 μL of cell suspension containing 10^5 cells/mL was pipetted into a 96-well plate. After 24 h incubation, the tested compounds were added in the concentration range 12.5–200 μM. After 72 h incubation, the cell viability was tested by standard resazurin assay.[41] Briefly, the cells were washed with PBS and incubated with 100 μL of resazurin solution (0.025 mg/mL) for 2 h. The fluorescence was measured at a wavelength of 560 nm excitation/590 nm emission.

[5] = system: transmembrane efflux pumps; experiment: Ethidium bromide accumulation assay; format: cell-based, S. aureus MSSA 2; conditions: for efflux inhibition (ethidium bromide accumulation), in words: compared with comparator CCCP, concentrations 25–100 μM; for accumulation of ethidium bromide compared to 100 μM CCCP: compound at 25 μM, relative to CCCP (100 μM)
Text: The application of antibiotics often leads to oxidative stress in bacteria, which triggers the efflux pump systems that contribute to antimicrobial resistance.[34] Therefore, modulation of the efflux system has been proposed as another plausible target of derivatives. The efflux pump inhibitor carbonyl cyanide 3-chlorophenylhydrazone (CCCP) was used as a comparator in our assay. Its action destroys the proton-motive force at the membrane so that the efflux pump cannot transport substrates out of the cell. One such universal substrate is ethidium bromide, the accumulation of which in the cell can be measured using fluorescence.
The accumulation assay was performed according to previously published methods with minor modifications.[15],[42] Briefly, a bacterial culture of S. aureus MSSA 2 cultured overnight in the presence of colistin (4 mg/L) to induce oxidative stress and activate efflux system[34] was diluted in PBS to OD600 nm = 0.6. The suspension was centrifuged (13,000 × g; 3 min), resuspended in fresh PBS, and distributed into the wells of a black 96-well microtiter plate (ThermoFisher Scientific). Samples were diluted with EtBr solution (4 μg/mL). 50 μL of the mixture was added to 50 μL of the bacterial suspension. The reaction was monitored using SpectraMax iD5Multi-Mode Microplate Reader (ex/em = 530/600 nm) every 60 s for 60 min.

[6] = 72 h incubation, resazurin, average of three repetitions ± SEM

SMILES | IC50 [1] | IC50 [2] | IC50 [3] | effect (mode of action with gentamicin) (MRSA 1584) | MIC, Gentamicin [1 mg/L] yes (MRSA 1584) | FIC (Fractional Inhibitory Concentration Index) (MRSA 1584) | MIC (MRSA 1584) | IC50 [4] | efflux inhibition (ethidium bromide accumulation), in words [5] | IC50 [4, 6] | accumulation of ethidium bromide compared to 100 μM CCCP [5] | ability to inhibit IL-6 production compared to luteolin, in words [3]
O=c1c(O)c(-c2ccc(O)c(O)c2)oc2cc(O)cc(O)c12 [compound 4, quercetin, reference compound] | 55.1 ± 2.1 µM | 9.3 ± 0.6 µM | 4.7 ± 0.2 µM | additive (> 0.5-1 indicates additive effects) | 55.6 ± 1.1 µM (≈ 16.8 µg/mL) | 0.63 ± 0.01 | 88.6 ± 0.3 µM (≈ 26.8 µg/mL) | 127 ± 3.4 µM | efflux inhibitors | – | – | –
O=c1c(O)c(-c2ccc(O)c(O)c2)oc2c(Nc3ccc(F)cc3)c(O)cc(O)c12 [compound 5, 2-(3,4-Dihydroxyphenyl)-8-(4-fluoroanilino)-3,5,7-trihydroxy-4H–1-benzopyran-4-one] | > 50 µM | 37.4 ± 1.6 µM | 14.6 ± 0.8 µM | additive (> 0.5-1 indicates additive effects) | 28.2 ± 0.5 µM (≈ 11.6 µg/mL) | 0.97 ± 0.02 | 29.2 ± 0.1 µM (≈ 12 µg/mL) | – | – | 37.6 ± 3.4 µM | 75% | –
O=c1c(O)c(-c2ccc(O)c(O)c2)oc2c(Nc3ccc(C(F)(F)F)cc3)c(O)cc(O)c12 [compound 8, 2-(3,4-Dihydroxyphenyl)-8-(4-(trifluoromethyl)anilino)-3,5,7-trihydroxy-4H–1-benzopyran-4-one] | > 50 µM | 53.3 ± 0.8 µM | 35.1 ± 1.6 µM | additive (> 0.5-1 indicates additive effects) | 23.9 ± 0.1 µM (≈ 11 µg/mL) | – | 24.5 ± 0.4 µM (≈ 11.3 µg/mL) | 117.1 ± 0.1 µM | – | – | – | –
O=c1cc(-c2ccc(O)c(O)c2)oc2cc(O)cc(O)c12 [compound 10, luteolin, reference compound] | 25.9 ± 0.3 µM | 13.3 ± 0.2 µM | 7.3 ± 0.2 µM | additive (> 0.5-1 indicates additive effects) | 7.6 ± 1.0 µM (≈ 2.18 µg/mL) | 0.50 ± 0.11 | 15.2 ± 1.4 µM (≈ 4.35 µg/mL) | 34.7 ± 1 µM | significantly better than CCCP at the same concentration (100 μM) | – | – | –
O=c1cc(-c2ccc(O)c(O)c2)oc2c(Nc3ccc(F)cc3)c(O)cc(O)c12 [compound 11, 2-(3,4-Dihydroxyphenyl)-8-(4-fluoroanilino)-5,7-dihydroxy-4H–1-benzopyran-4-one] | 28.4 ± 0.2 µM | > 25 µM | 7.2 ± 0.3 µM | additive (> 0.5-1 indicates additive effects) | 15.7 ± 0.9 µM (≈ 6.21 µg/mL) | 0.65 ± 0.06 | 24.1 ± 0.7 µM (≈ 9.53 µg/mL) | 76.9 ± 7.7 µM | higher activity than CCCP alone | – | comparable to 8-(4-fluoroanilino) quercetin (5) | same ability to inhibit IL-6 production as luteolin
COc1ccc(Nc2c(O)cc(O)c3c(=O)cc(-c4ccc(O)c(O)c4)oc23)cc1 [compound 12, 2-(3,4-Dihydroxyphenyl)-8-(4-methoxyanilino)-5,7-dihydroxy-4H–1-benzopyran-4-one] | > 50 µM | 48.3 ± 1.3 µM | 15.3 ± 0.5 µM | additive (> 0.5-1 indicates additive effects) | 47.1 ± 0.8 µM (≈ 19.2 µg/mL) | 0.65 ± 0.03 | 72.9 ± 2.4 µM (≈ 29.7 µg/mL) | – | – | 59.3 ± 6.3 µM | – | –
O=c1cc(-c2ccc(O)c(O)c2)oc2c(Nc3ccccc3)c(O)cc(O)c12 [compound 13, 2-(3,4-Dihydroxyphenyl)-8-(anilino)-5,7-dihydroxy-4H–1-benzopyran-4-one] | > 25 µM | 29.3 ± 0.1 µM | 7.3 ± 0.6 µM | additive (> 0.5-1 indicates additive effects) | 49.9 ± 8.1 µM (≈ 18.8 µg/mL) | 0.70 ± 0.12 | 70.9 ± 0.3 µM (≈ 26.8 µg/mL) | – | – | 41.4 ± 3.7 µM | – | same ability to inhibit IL-6 production as luteolin
O=c1cc(-c2ccc(O)c(O)c2)oc2c(Nc3ccc(C(F)(F)F)cc3)c(O)cc(O)c12 [compound 14, 2-(3,4-Dihydroxyphenyl)-8-(4-(trifluoromethyl)anilino)-5,7-dihydroxy-4H–1-benzopyran-4-one] | > 25 µM | > 25 µM | 12.4 ± 0.4 µM | indifferent (> 1 to < 2 indicates indifference) | 26.1 ± 1.6 µM (≈ 11.6 µg/mL) | 1.71 ± 0.26 | 15.3 ± 1.3 µM (≈ 6.81 µg/mL) | 26.8 ± 1.6 µM | – | – | – | –
O=c1cc(-c2ccc(O)c(O)c2)oc2c(Nc3cccc(F)c3)c(O)cc(O)c12 [compound 15, 2-(3,4-Dihydroxyphenyl)-8-(3-fluoroanilino)-5,7-dihydroxy-4H–1-benzopyran-4-one] | > 25 µM | 31.8 ± 0.9 µM | 8 ± 0.6 µM | additive (> 0.5-1 indicates additive effects) | 27.6 ± 0.5 µM (≈ 10.9 µg/mL) | 0.96 ± 0.02 | 28.6 ± 0.1 µM (≈ 11.3 µg/mL) | – | – | 26 ± 5.8 µM | – | same ability to inhibit IL-6 production as luteolin
